Reference: ChEMBL document CHEMBL3758081, “Synthesis and biological evaluation of new naphthalene substituted thiosemicarbazone derivatives as potent antifungal and anticancer agents” (Eur J Med Chem, 2016)
In brackets after ≈: the same amount, converted by molar mass.

How the values were obtained:
Aspergillus parasiticus = assay: Antifungal activity against Aspergillus parasiticus NRRL 465 after 72 hrs by broth microdilution method; type: functional; details: NRRL 465, 72 h
Nakaseomyces glabratus = assay: Antifungal activity against clinical isolate Candida glabrata after 48 hrs by broth microdilution method; type: functional
Aspergillus niger = assay: Antifungal activity against Aspergillus niger ATCC-1094 after 72 hrs by broth microdilution method; type: functional; details: ATCC-1094, 72 h
Aspergillus flavus = assay: Antifungal activity against Aspergillus flavus NRRL-980 after 72 hrs by broth microdilution method; type: functional; details: NRRL-980, 72 h
Fusarium solani = assay: Antifungal activity against Fusarium solani NRRL-13414 after 72 hrs by broth microdilution method; type: functional; details: NRRL-13414, 72 h
Candida tropicalis = assay: Antifungal activity against Candida tropicalis NRLL Y-12968 after 48 hrs by broth microdilution method; type: functional; details: NRLL Y-12968, 48 h
[1] = Cytotoxicity against mouse NIH/3T3 cells after 24 hrs by XTT assay; type: cell-based; details: NIH3T3, 24 h
Pichia kudriavzevii = assay: Antifungal activity against Candida krusei NRLL Y-7179 after 48 hrs by broth microdilution method; type: functional; details: NRLL Y-7179, 48 h
Candida albicans = assay: Antifungal activity against Candida albicans ATCC-90028 after 48 hrs by broth microdilution method; type: functional; details: ATCC-90028, 48 h
Candida parapsilosis = assay: Antifungal activity against Candida parapsilosis NRLL Y-12696 after 48 hrs by broth microdilution method; type: functional; details: Lodderomyces parapsilosis, NRLL Y-12696, 48 h
[Candida] zeylanoides = Antifungal activity against Candida zeylanoides NRLL Y-1774 after 48 hrs by broth microdilution method; type: functional; details: Dujonia zeylanoides, NRLL Y-1774, 48 h
A549 = assay: Cytotoxicity against human A549 cells after 24 hrs by XTT assay; type: functional, cell-based; details: A549, 24 h

SMILES | MIC (Aspergillus parasiticus) | MIC (Nakaseomyces glabratus) | MIC (Aspergillus niger) | MIC (Aspergillus flavus) | MIC (Fusarium solani) | MIC (Candida tropicalis) | IC50 [1] | MIC (Pichia kudriavzevii) | MIC (Candida albicans) | MIC (Candida parapsilosis) | MIC ([Candida] zeylanoides) | IC50 (A549)
Fc1ccc(Oc2ccc(/C=N/NC(=S)Nc3cccc4ccccc34)cc2)cc1 | 250 µg/mL (≈ 602 µM) | 250 µg/mL (≈ 602 µM) | 250 µg/mL (≈ 602 µM) | 250 µg/mL (≈ 602 µM) | 250 µg/mL (≈ 602 µM) | 250 µg/mL (≈ 602 µM) | > 500 µg/mL | 250 µg/mL (≈ 602 µM) | 250 µg/mL (≈ 602 µM) | 250 µg/mL (≈ 602 µM) | 250 µg/mL (≈ 602 µM) | 62.5 µg/mL (≈ 150 µM)
Fc1ccc(/C=N/NC(=S)Nc2cccc3ccccc23)c(F)c1 | 250 µg/mL (≈ 732 µM) | 250 µg/mL (≈ 732 µM) | 250 µg/mL (≈ 732 µM) | 250 µg/mL (≈ 732 µM) | 250 µg/mL (≈ 732 µM) | 250 µg/mL (≈ 732 µM) | > 500 µg/mL | 250 µg/mL (≈ 732 µM) | 250 µg/mL (≈ 732 µM) | 250 µg/mL (≈ 732 µM) | 250 µg/mL (≈ 732 µM) | 31.2 µg/mL (≈ 91.5 µM)
Fc1cc(F)cc(/C=N/NC(=S)Nc2cccc3ccccc23)c1 | 250 µg/mL (≈ 732 µM) | 250 µg/mL (≈ 732 µM) | 250 µg/mL (≈ 732 µM) | 250 µg/mL (≈ 732 µM) | 250 µg/mL (≈ 732 µM) | 250 µg/mL (≈ 732 µM) | > 500 µg/mL | 250 µg/mL (≈ 732 µM) | 250 µg/mL (≈ 732 µM) | 250 µg/mL (≈ 732 µM) | 250 µg/mL (≈ 732 µM) | 500 µg/mL (≈ 1460 µM)
Fc1ccc(/C=N/NC(=S)Nc2cccc3ccccc23)cc1Cl | 250 µg/mL (≈ 699 µM) | 250 µg/mL (≈ 699 µM) | 250 µg/mL (≈ 699 µM) | 250 µg/mL (≈ 699 µM) | 250 µg/mL (≈ 699 µM) | 250 µg/mL (≈ 699 µM) | 500 µg/mL (≈ 1400 µM) | 250 µg/mL (≈ 699 µM) | 250 µg/mL (≈ 699 µM) | 250 µg/mL (≈ 699 µM) | 250 µg/mL (≈ 699 µM) | 51.3 µg/mL (≈ 143 µM)
Fc1cccc(F)c1/C=N/NC(=S)Nc1cccc2ccccc12 | 250 µg/mL (≈ 732 µM) | 250 µg/mL (≈ 732 µM) | 250 µg/mL (≈ 732 µM) | 250 µg/mL (≈ 732 µM) | 250 µg/mL (≈ 732 µM) | 250 µg/mL (≈ 732 µM) | 31.2 µg/mL (≈ 91.5 µM) | 250 µg/mL (≈ 732 µM) | 250 µg/mL (≈ 732 µM) | 250 µg/mL (≈ 732 µM) | 250 µg/mL (≈ 732 µM) | 500 µg/mL (≈ 1460 µM)
Fc1ccc(/C=N/NC(=S)Nc2cccc3ccccc23)cc1F | 250 µg/mL (≈ 732 µM) | 250 µg/mL (≈ 732 µM) | 250 µg/mL (≈ 732 µM) | 250 µg/mL (≈ 732 µM) | 250 µg/mL (≈ 732 µM) | 250 µg/mL (≈ 732 µM) | > 500 µg/mL | 250 µg/mL (≈ 732 µM) | 250 µg/mL (≈ 732 µM) | 250 µg/mL (≈ 732 µM) | 250 µg/mL (≈ 732 µM) | 125 µg/mL (≈ 366 µM)
Fc1cc(F)c(/C=N/NC(=S)Nc2cccc3ccccc23)c(F)c1 | 250 µg/mL (≈ 696 µM) | 250 µg/mL (≈ 696 µM) | 250 µg/mL (≈ 696 µM) | 250 µg/mL (≈ 696 µM) | 250 µg/mL (≈ 696 µM) | 250 µg/mL (≈ 696 µM) | > 500 µg/mL | 250 µg/mL (≈ 696 µM) | 250 µg/mL (≈ 696 µM) | 250 µg/mL (≈ 696 µM) | 250 µg/mL (≈ 696 µM) | > 500 µg/mL
Fc1cccc(Cl)c1/C=N/NC(=S)Nc1cccc2ccccc12 | 250 µg/mL (≈ 699 µM) | 250 µg/mL (≈ 699 µM) | 250 µg/mL (≈ 699 µM) | 250 µg/mL (≈ 699 µM) | 250 µg/mL (≈ 699 µM) | 250 µg/mL (≈ 699 µM) | > 500 µg/mL | 250 µg/mL (≈ 699 µM) | 250 µg/mL (≈ 699 µM) | 250 µg/mL (≈ 699 µM) | 250 µg/mL (≈ 699 µM) | 125 µg/mL (≈ 349 µM)
CC(=O)N1CCN(c2ccc(OCC3COC(Cn4ccnc4)(c4ccc(Cl)cc4Cl)O3)cc2)CC1 (stereo unspecified) [KETOCONAZOLE] | 7.81 µg/mL (≈ 14.7 µM) | 62.5 µg/mL (≈ 118 µM) | 31.2 µg/mL (≈ 58.8 µM) | 15.6 µg/mL (≈ 29.4 µM) | 62.5 µg/mL (≈ 118 µM) | 125 µg/mL (≈ 235 µM) |  | 125 µg/mL (≈ 235 µM) | 62.5 µg/mL (≈ 118 µM) | 15.6 µg/mL (≈ 29.4 µM) | 250 µg/mL (≈ 470 µM) | 
